The values that follow come from PMC10780910, “Opioid/Dopamine Receptor Binding Studies, NMR and Molecular Dynamics Simulation of LENART01 Chimera, an Opioid-Bombesin-like Peptide” (Molecules, 2024).

In test [1] the test system is opioid and dopamine receptors. In words: Functional [35S]GTPγS binding, spinal cord membrane. The conditions noted are these: for Emax ± S.E.M., ligand alone / Emax ± S.E.M., Ligand + Cyprodime / Emax / Emax ± S.E.M., Ligand + Risperidone: rat spinal cord membrane, 30 °C, 60 min; for Emax ± S.E.M., ligand alone: Tris-EGTA pH 7.4, 0.05 nM [35S]GTPγS; for Emax ± S.E.M., Ligand + Cyprodime: opioid system, + cyprodime (selective MOR antagonist); for Emax ± S.E.M., Ligand + Cyprodime / Emax / Emax ± S.E.M., Ligand + Risperidone: pH 7.4; for Emax ± S.E.M., Ligand + Cyprodime / Emax ± S.E.M., Ligand + Risperidone: *** p < 0.001 vs ligand alone; for Emax / Emax ± S.E.M., Ligand + Risperidone: dopaminergic system; for Emax: + SCH-39166 (selective D1R antagonist), ns vs ligand alone, read-out: Emax ± S.E.M., Ligand + SCH-39166; for Emax ± S.E.M., Ligand + Risperidone: + risperidone (selective D2R antagonist). The format is biochemical, rat (Wistar). On the procedure: (§1) Both male and female Wistar rats were used for membrane preparations (brains and spinal cords). Animals were housed at 22 ± 0.5 °C with a 12:12 h light–dark cycle. Food and water were available ad libitum. All animal manipulations were carried out according to the European Communities Council Directives ([…]) and the Hungarian Act for the Protection of Animals in Research (XXVIII.tv. 32.§).
(§2) The functional [^35S]GTPγS binding experiments were performed as previously described. In brief, the brain and spinal cord homogenates were incubated at 30 °C for 60 min in Tris-EGTA buffer (pH 7.4) containing [^35S]GTPγS (0.05 nM) and in the presence of varying concentrations of the ligand. Non-specific binding was determined in the presence of non-radiolabeled 10 μM GTPγS. The reaction was stopped by rapid filtration under vacuum (Brandel M24R Cell Harvester), and the samples were washed with cold Tris-HCl buffer. The radioactivity of the dried filters was determined by scintillation counting.

Test [2] deals with opioid and dopamine receptors. In words: Functional [35S]GTPγS binding, brain membrane. The format is biochemical, rat (Wistar). The following applies: for Emax ± S.E.M., ligand alone: Tris-EGTA pH 7.4, 0.05 nM [35S]GTPγS; for Emax ± S.E.M., Ligand + Cyprodime: opioid system, + cyprodime (selective MOR antagonist), *** p < 0.001 vs ligand alone (unpaired t-test); for Emax ± S.E.M., Ligand + Risperidone: + risperidone (selective D2R antagonist), *** p < 0.001 vs ligand alone. On the procedure: as §1, §2

The subject of another test is D2R. In words: Competitive [3H]Spiperone binding (D2R). Set-up: species or system rat (Wistar). The following applies: rat brain and spinal cord homogenates.
Description: (§3) The chimeric peptide LENART01 was examined in [^3H]DAMGO, [^3H]SCH−23390 and [^3H]Spiperone homolog displacement in rat brains and spinal cord homogenates. The binding affinity of the hybrid and its intrinsic activity value were compared with dermorphin and ranatensin, its structural components.
(§4) Figure 3 Binding affinity of LENART01 at MOR (A,B), D1R (C,D) and D2R (E,F) receptors, respectively, using [^3H]DAMGO and [^3H]SCH−23390 and [^3H]Spiperone as radioligands. Results represent mean ± SEM of 3 independent experiments, each performed in duplicate.
as §1
(§5) Competitive analysis of the chimera activity was performed in the presence of naloxone (in case of MOR displacement studies) or SCH-23390 (for D1R) and spiperone (for D2R). […] The radioactivity of the dried filters was detected using an UltimaGold^TM MV aqueous scintillation cocktail with a Packard Tricarb 2300TR liquid scintillation counter. […]

A further test has as its system E. coli strains. The following applies: different E. coli strains; cited from earlier work. The text has this: (§6) Noteworthily, the N-terminal pharmacophore of LENART01 consists of dermorphin with an amino acid sequence of YdAFGYPS. At the same time, the C-terminus was constructed from ranatensin, which was additionally heavily modified, resulting in a sequence of GHFM.

A further test has as its system MOR. In words: Competitive [3H]DAMGO binding (MOR). The conditions noted are these: receptor binding assay, rat brain and spinal cord homogenates. Set-up: species or system rat (Wistar).
Description: as §3, §4, §1, §5

Another test concerns dopaminergic receptors. The conditions noted are these: ref Zhu et al. 10; cited from earlier work.
The subject of test [3] is dopamine D2 receptor (D2R). The conditions noted are these: cited from earlier work.
Description: as §6

The mark [4] stands for this setting: rat brain membrane, 30 °C, 60 min.
Setting [5] is: rat brain membrane, 30 °C, 60 min, pH 7.4.
Setting [6] is: rat brain membrane, dopaminergic system, 30 °C, 60 min, pH 7.4.

In the case of “YdAFGYPS [dermorphin, reference compound]”, the “Emax ± S.E.M., ligand alone” value turned out to be 140.0 ± 1.8% in test [1] and 140.5 ± 2.9% in test [2] (setting [4]). The “Emax ± S.E.M., Ligand + Cyprodime” value is 100.4 ± 0.9 *** % in test [1] and 100.0 ± 1.1 *** % in test [2] (setting [5]).

In the case of YdAFGYPSGHFM [LENART01], in the test with D2R ([3H]Spiperone (D2R) vs [3H]SCH-23390 (D1R), Tris-HCl pH 7.4, 3 independent experiments in duplicate), the “selectivity to D2R compared to D1R” value is given as “high selectivity to D2R compared to D1R”. Moreover, the “binding to dopamine receptors” value in the test with D2R (receptor binding assay in vitro, abstract statement) is “bound to mu-opioid and dopamine receptors”. The antimicrobial activity result with E. coli strains is “antimicrobial activity against different E. coli strains”. Besides, the Emax in test [1] stood at 136 ± 1.7%; in test [2] (rat brain membrane, dopaminergic system, + SCH-39166 (selective D1R antagonist), 30 °C, 60 min, pH 7.4, ns for chimera, *** p < 0.001 for ranatensin, read-out: Emax ± S.E.M., Ligand + SCH-39166) it was 140.8 ± 0.8%. Besides, the results for the “Emax ± S.E.M., Ligand + Risperidone” value in test [1] and in test [2] (setting [6]) were 101.6 ± 1.2 *** % and 101.1 ± 0.7 *** %, respectively. The “Emax ± S.E.M., ligand alone” value in test [1] is 136.3 ± 2.2%; in test [2] (setting [4]) it was 140.6 ± 1.0%. Moreover, the results for the “Emax ± S.E.M., Ligand + Cyprodime” value in test [1] and in test [2] (setting [5]) were 100.8 ± 1.1 *** % and 100.4 ± 1.4 *** %, respectively. The “maximal stimulation vs dermorphin” value in test [1] (spinal cord membrane, [35S]GTPγS) was “less than that of dermorphin”. The “binding to MOR” value in the test with MOR was “bound to mu-opioid and dopamine receptors”. The “dose-dependent increases in functional binding vs dermorphin” value in test [2] (rat brain membranes, [35S]GTPγS) is on record as “equal to the increases in dermorphin”. Further, the “effect of SCH−39166 on efficacy” value in test [2] (selective D1R antagonist SCH−39166, tissue not specified) was “did not significantly reverse the efficacy”. The “effect of risperidone on stimulation” value in test [2] (selective D2R antagonist risperidone, tissue not specified) is listed as “brought down the stimulation of LENART01 to basal activity”. The “effect of cyprodime on efficacy” value in test [2] (selective MOR antagonist cyprodime, tissue not specified) is listed as “reversed the efficacy”.

On to ranatensin [reference compound], for which the “analgesia and naloxone antagonism” value with dopaminergic receptors was “naloxone failed to antagonize the pain-relieving effect”. In addition, the “interaction with D2R” value in test [3] was “known to interact with”. Besides, in test [1], the Emax is 117.4 ± 1.1%; the “Emax ± S.E.M., Ligand + Risperidone” value was 100.0 ± 0.7 *** %; the “Emax ± S.E.M., ligand alone” value is reported as 119.8 ± 1.3%. The “binding to MOR” value in the test with MOR is “did not bind to MOR”. In addition, in test [2] (rat brain membrane, dopaminergic system, + SCH-39166 (selective D1R antagonist), 30 °C, 60 min, pH 7.4, ns for chimera, *** p < 0.001 for ranatensin), the “Emax ± S.E.M., Ligand + SCH-39166” value is given as 119.1 ± 0.8 *** %. Further, the “Emax ± S.E.M., Ligand + Risperidone” value in test [2] (setting [6]) is given as 101.5 ± 1.7 *** %. In test [2] (setting [4]), the “Emax ± S.E.M., ligand alone” value was determined as 124.1 ± 1.9%.
